Assay results taken from US20240239801A1, “PYRIMIDO[5,4,D]PYRIMIDINE COMPOUNDS, COMPOSITIONS COMPRISING THEM AND USES THEREOF” (Université de Montréal, priority 2021, published 2024).
Where two headings read alike, the source gives them in different places.

Key:
HCT116 pERK = assay: Phospho-ERK inhibition, AlphaLISA SureFire Ultra p-ERK 1/2; assay type: cell-based, human; conditions: for IC50: 1 h treatment; for HCT116 (Ymin %): lowest value of the pERK IC50 curve
Protocol: (§1) All cancer cell lines (A375, A101D, A2058, RKO, HT29 SK-MEL 30, IPC298, HepG2, HCT-116, Lovo, SW620, SW480, NCI-H358, NCI-H2122, Calu-6, NCIH2087, NCIH1755, NCIH1666 and Mewo) were obtained from ATCC and cultured in RPMI-1640 medium (Gibco) supplemented with 5% heat inactivated fetal bovine serum (FBS, Wisent) at 37° C. under 5% CO2. Cells were maintained in T175 flasks (Greiner). They were passaged by removing the culture medium, washing once in 10 mL of room temperature Phosphate Buffered Saline (PBS; Wisent) and incubating at 37° C. with 2 mL of 0.05% Trypsin (Thermo-Fisher). Trypsin was then inactivated by adding complete growth medium and the cells were then replated in a T175 culture dish at the appropriate dilution. All cell lines were routinely tested for mycoplasma contamination. Tissue type and mutational status of each cell line can be found in Table B.
(§2) AlphaLISA® SureFire® Ultra™ p-ERK ½ (Thr202/Tyr204) analysis was conducted on cells plated in 100 μL of complete RPMI-1640 growth medium in 96-well flat-bottomed transparent dishes (Costar) at a density indicated in Table C. Cells were maintained overnight at 37° C. under 5% CO2 before treatment with compounds' dilution series for one hour. The cell density in cells/cm^2 corresponds to cell number divided by the area of one well of a 96-well plate ([…]).
(§3) In a dilution series 100 μL/well of test substance dilution prepared in complete RPMI-1640 growth media was added to the cells. The dilution series is selected so that ten concentrations cover a range from 30 μM or 10 μM to 0.33 nM. If necessary, the initial concentration of 10 μM is increased to 100 μM or lowered to 1 μM (as in the case of A375 and NCIH1666 cells, which are generally more sensitive to the compounds) and further dilution is carried out accordingly. The final concentration of DMSO in the assay is set at 0.5%.
(§4) After treatment, media was removed, and cells were lysed in 50 μL of 1× AlphaScreen Ultra Lysis Buffer (Perkin Elmer). The AlphaLISA® SureFire® Ultra™ p-ERK ½ (Thr202/Tyr2O4) (PerkinElmer) reactions were performed with 5 μL of cell lysate according to the manufacturer's specifications in 384-well proxyplates (Perkin Elmer) followed by overnight incubation of the reactions at room temperature in a humidified chamber. After completion of the reactions, the signals were recorded on an EnVision plate reader (Perkin Elmer) using built in AlphaLISA® settings.
(§5) The effect of each compound dilution on the pERK signal was expressed in % inhibition and calculated as follows. An internal 100% inhibition control (1 μM trametinib, cat. No. HY-10999; MedChem Express; CAS No. 871700-17-3) was included in each plate and used as a measure of pERK background. First, the value obtained for trametinib was subtracted from each data point. The average of DMSO (vehicle) controls (set as 0% inhibition) was established and used to calculate % inhibition:
(§6) The ability of each compound to inhibit pERK signal was expressed as an IC50 value obtained by plotting the inhibition values for each data point of a dilution series and fitting the obtained curves using a log(agonist) versus response−variable slope (four parameters) function using GraphPadPrism (V7.0).
(§7) When present, paradoxical pERK induction is inferred from the negative % inhibition values observed in the pERK IC50 curves of a compound.

SW480 pERK = assay: as above; assay type: cell-based, human; conditions: for IC50: 1 h treatment; for SW480 (Ymin %): lowest value of the pERK IC50 curve
Protocol: as §1, §2, §3, §4, §5, §6, §7

[1] = Table 2, read-out: SW480 PERK IC50 (UM)
[2] = Table 3, read-out: SW480 PERK IC50

Compound | IC50 (HCT116 pERK; Table 2) [µM] | IC50 (SW480 pERK; [1]) [µM] | IC50 (HCT116 pERK; Table 3) [µM] | IC50 (SW480 pERK; [2]) [µM] | HCT116 (Ymin %) (HCT116 pERK; Table 2) [%] | SW480 (Ymin %) (SW480 pERK; Table 2) [%] | HCT116 (Ymin %) (HCT116 pERK; Table 3) [%] | SW480 (Ymin %) (SW480 pERK; Table 3) [%]
COc1ccc(S(=O)(=O)Nc2ccc(F)c(Nc3ncnc4cnc(SC)nc34)c2F)cc1OC [Example 2] | 1 to 10 | 1 to 10 | – | – | −14 | 5 | – | –
COC(=O)c1sccc1S(=O)(=O)Nc1ccc(F)c(Nc2ncnc3cnc(SC)nc23)c1F [Example 3] | 1 to 10 | 1 to 10 | – | – | −7 | 9 | – | –
CSc1ncc2ncnc(Nc3c(F)ccc(NS(=O)(=O)c4ccc5c(c4)CCO5)c3F)c2n1 [Example 4] | 1 to 10 | 1 to 10 | – | – | −5 | −2 | – | –
CSc1ncc2ncnc(Nc3c(F)ccc(NS(=O)(=O)c4ccccc4C#N)c3F)c2n1 [Example 5] | 10 to 30 | 1 to 10 | – | – | 8 | 8 | – | –
CSc1ncc2ncnc(Nc3c(F)ccc(NS(=O)(=O)c4ccc5c(c4)OCO5)c3F)c2n1 [Example 6] | 10 to 30 | 1 to 10 | – | – | −10 | 1 | – | –
COc1ccc(S(=O)(=O)Nc2ccc(F)c(Nc3ncnc4cnc(SC)nc34)c2F)c(C#N)c1 [Example 7] | 10 to 30 | 1 to 10 | – | – | 7 | 17 | – | –
COc1ccc(S(=O)(=O)Nc2ccc(F)c(Nc3ncnc4cnc(SC)nc34)c2F)c(F)c1 [Example 8] | 1 to 10 | 1 to 10 | – | – | −3 | 15 | – | –
CSc1ncc2ncnc(Nc3c(F)ccc(NS(=O)(=O)c4ccc(F)cc4C#N)c3F)c2n1 [Example 10] | 10 to 30 | 1 to 10 | – | – | 9 | −9 | – | –
COc1ccc(S(=O)(=O)Nc2ccc(F)c(Nc3ncnc4cnc(SC)nc34)c2F)c(C)c1 [Example 12] | 1 to 10 | 1 to 10 | – | – | −7 | −10 | – | –
COc1ccc(S(=O)(=O)Nc2ccc(F)c(Nc3ncnc4cnc(SC)nc34)c2F)c(C(F)(F)F)c1 [Example 14] | 1 to 10 | 1 to 10 | – | – | −5 | −6 | – | –
CSc1ncc2ncnc(Nc3c(F)ccc(NS(=O)(=O)c4ccc(Cl)cc4Cl)c3F)c2n1 [Example 15] | 10 to 30 | 10 to 30 | – | – | −3 | 0 | – | –
CSc1ncc2ncnc(Nc3c(F)ccc(NS(=O)(=O)c4ccc(Br)cc4F)c3F)c2n1 [Example 16] | 10 to 30 | 1 to 10 | – | – | 1 | 3 | – | –
CSc1ncc2ncnc(Nc3c(F)ccc(NS(=O)(=O)c4ccc(Br)cc4C)c3F)c2n1 [Example 17] | 10 to 30 | 1 to 10 | – | – | 5 | 3 | – | –
CSc1ncc2ncnc(Nc3c(F)ccc(NS(=O)(=O)c4ccc(C)cc4)c3F)c2n1 [Example 18] | 10 to 30 | 1 to 10 | – | – | 4 | 11 | – | –
COc1ccc(S(=O)(=O)Nc2ccc(F)c(Nc3ncnc4cnc(SC)nc34)c2F)c(OC)c1 [Example 19] | 10 to 30 | 1 to 10 | – | – | −4 | 4 | – | –
CSc1ncc2ncnc(Nc3c(F)ccc(NS(=O)(=O)c4ccccc4C)c3F)c2n1 [Example 20] | 1 to 10 | 1 to 10 | – | – | 7 | 12 | – | –
CSc1ncc2ncnc(Nc3c(F)ccc(NS(=O)(=O)c4ccccc4Cl)c3F)c2n1 [Example 21] | 1 to 10 | 1 to 10 | – | – | 2 | 9 | – | –
CSc1ncc2ncnc(Nc3c(F)ccc(NS(=O)(=O)c4ccc(Cl)cc4C)c3F)c2n1 [Example 22] | 1 to 10 | 1 to 10 | – | – | −1 | −5 | – | –
CSc1ncc2ncnc(Nc3c(F)ccc(NS(=O)(=O)c4ccc(C)cc4C)c3F)c2n1 [Example 23] | 1 to 10 | 1 to 10 | – | – | 0 | −7 | – | –
CSc1ncc2ncnc(Nc3c(F)ccc(NS(=O)(=O)N4CCCC4)c3F)c2n1 [Example 24] | 10 to 30 | 1 to 10 | – | – | 10 | 13 | – | –
COC1CN(S(=O)(=O)Nc2ccc(F)c(Nc3ncnc4cnc(SC)nc34)c2F)C1 [Example 25] | 10 to 30 | 10 to 30 | – | – | 7 | −6 | – | –
CSc1ncc2ncnc(Nc3c(F)ccc(NS(=O)(=O)N4CCC(F)(F)C4)c3F)c2n1 [Example 27] | 10 to 30 | – | – | – | −6 | – | – | –
COc1ccc(S(=O)(=O)Nc2ccc(F)c(Nc3ncnc4cnc(-n5cnc(C)c5)nc34)c2F)cc1OC [Example 30] | – | – | 1 to 10 | 10 to 30 | – | – | −6 | −5
COc1ccc(S(=O)(=O)Nc2ccc(F)c(Nc3ncnc4cnc(-n5cnc6ccccc65)nc34)c2F)cc1 [Example 36] | – | – | 1 to 10 | 1 to 10 | – | – | 10 | 10

Continued, in another order:

IC50 (HCT116 pERK; Table 2) [µM] | IC50 (SW480 pERK; [1]) [µM] | IC50 (HCT116 pERK; Table 3) [µM] | IC50 (SW480 pERK; [2]) [µM] | Compound | HCT116 (Ymin %) (HCT116 pERK; Table 2) [%] | SW480 (Ymin %) (SW480 pERK; Table 2) [%] | HCT116 (Ymin %) (HCT116 pERK; Table 3) [%] | SW480 (Ymin %) (SW480 pERK; Table 3) [%]
– | – | 1 to 10 | 1 to 10 | COc1ccc(S(=O)(=O)Nc2ccc(F)c(Nc3ncnc4cnc(N5CC[C@H](F)C5)nc34)c2F)cc1 [Example 31] | – | – | 13 | 11
– | – | 10 to 30 | 1 to 10 | COc1ccc(S(=O)(=O)Nc2ccc(F)c(Nc3ncnc4cnc(-n5ccnc5C)nc34)c2F)cc1 [Example 32] | – | – | 1 | 8
– | – | 10 to 30 | 1 to 10 | N#Cc1ccccc1S(=O)(=O)Nc1ccc(F)c(Nc2ncnc3cnc(N4CC[C@H](F)C4)nc23)c1F [Example 33] | – | – | −4 | 13
– | – | 10 to 30 | 1 to 10 | Cc1ncn(-c2ncc3ncnc(Nc4c(F)ccc(NS(=O)(=O)c5ccccc5C#N)c4F)c3n2)c1C [Example 34] | – | – | −3 | −2.0
– | – | 10 to 30 | 1 to 10 | COc1ccc(S(=O)(=O)Nc2ccc(F)c(Nc3ncnc4cnc(-n5ccnc5)nc34)c2F)cc1 [Example 35] | – | – | −4 | 14
– | – | 1 to 10 | 1 to 10 | COc1ccc(S(=O)(=O)Nc2ccc(F)c(Nc3ncnc4cnc(-n5cc(C)nc5C)nc34)c2F)cc1 [Example 37] | – | – | −5 | −6
– | – | 10 to 30 | 10 to 30 | COc1ccc(S(=O)(=O)Nc2ccc(F)c(Nc3ncnc4cnc(N5CC[C@@H](F)C5)nc34)c2F)cc1 [Example 38] | – | – | −1 | −3
– | – | 10 to 30 | 10 to 30 | COc1ccc(S(=O)(=O)Nc2ccc(F)c(Nc3ncnc4cnc(N5CCC(F)(F)C5)nc34)c2F)cc1 [Example 39] | – | – | 5 | −3
– | – | 1 to 10 | 1 to 10 | COc1ccc(S(=O)(=O)Nc2ccc(F)c(Nc3ncnc4cnc(-n5cnc(C)c5C)nc34)c2F)cc1 [Example 40] | – | – | 12 | −7
– | – | 10 to 30 | 10 to 30 | COc1ccc(S(=O)(=O)Nc2ccc(F)c(Nc3ncnc4cnc(N5CCC(O)C5)nc34)c2F)cc1 (stereo not drawn) [Example 41] | – | – | 13 | 6
– | – | 10 to 30 | 10 to 30 | COc1ccc(S(=O)(=O)Nc2ccc(F)c(Nc3ncnc4cnc(N5CCC(O)C5)nc34)c2F)cc1 (stereo not drawn) [Example 42] | – | – | −2 | 11
